The values below come from US4590199A, “Antihistaminic 2-(amino ethylamino) pyridines” (priority 1983, dated 1986).

For series [1] the following is noted: antihistamines now in use; causes dryness of mouth, blurred vision and tachycardia; cited from earlier work.
The target of series [2] is T1, histamine response of longitudinal muscle isolated from the intact ileum of guinea-pigs (Cavia porcellus, UniProt P31389).
T1 construct: The longitudinal muscle was isolated from the intact ileum of guinea-pigs; from tissue; host or cells: longitudinal muscle of guinea-pig ileum (Hartley, male)
Description: In vitro antihistaminic activity (histamine concentration-response curves, Schild plot). The following applies: for Kb: guinea-pig ileum longitudinal muscle, one hour incubation with test compound, Schild plot, read-out: pA2 (converted); for antihistamine activity (in words): of the compounds of formula (I). The class given is cell-based, guinea-pig (Hartley, male). On the procedure: In vitro antihistaminic activity: The longitudinal muscle was isolated from the intact ileum of guinea-pigs (Hartley, male 250-400 g) and placed in an organ bath under 300 mg tension. After one hour of equilibration, cumulative concentration-response curves (Van Rossum, J. M., Arch. Int. Pharmacodyn. Ther. 143, 299-330, 1963) to histamine were obtained. Following washing, the tissues were incubated for one hour with the test compound and then a second histamine concentration-response curve was run. Shifts to the right of the agonist concentration-response curve produced by the antagonists were used to construct Schild plots (Arunlakshana, O. and Schild, H. O., Br. J. Pharmacol: 14, 48-58, 1959). Regression of Log (dr-1) on Log [B], where dr is an equiactive response in the presence and absence of antagonist and [B] is the molar concentration of antagonist, allowed an estimate of pA2, i.e. the negative log of the concentration of antagonist which shifts the control histamine concentration-response curve 2X to the right.

For series [3] the following is noted: human, in vivo; cited from earlier work.

T1 sequence (P31389 whole entry): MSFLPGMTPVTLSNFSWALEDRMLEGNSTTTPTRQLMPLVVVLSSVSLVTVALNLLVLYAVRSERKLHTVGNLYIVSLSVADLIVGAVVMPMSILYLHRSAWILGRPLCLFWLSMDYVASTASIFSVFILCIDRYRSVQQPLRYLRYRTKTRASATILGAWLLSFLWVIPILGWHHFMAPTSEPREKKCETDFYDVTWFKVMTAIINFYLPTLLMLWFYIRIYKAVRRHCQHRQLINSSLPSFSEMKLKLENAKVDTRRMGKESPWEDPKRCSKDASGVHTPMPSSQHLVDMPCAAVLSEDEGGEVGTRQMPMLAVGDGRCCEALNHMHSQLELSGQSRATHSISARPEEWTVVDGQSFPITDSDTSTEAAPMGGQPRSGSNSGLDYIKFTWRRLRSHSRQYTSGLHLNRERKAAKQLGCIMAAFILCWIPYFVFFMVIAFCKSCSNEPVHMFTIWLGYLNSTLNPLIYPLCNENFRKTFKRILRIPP

Consider `Cc1ccc(/C(=C\CN2CCCC2)c2ccccn2)cc1` [triprolidine], for which, in series [1], the anticholinergic activity result is on record as “varying degrees of anticholinergic activity”. Turning to `CC(CN1c2ccccc2Sc2ccccc21)N(C)C` (centres unmarked) [promethazine], the anticholinergic activity entry in series [1] is on record as “varying degrees of anticholinergic activity”. As to `COc1ccc(CN(CCN(C)C)c2cccc(/C=C/C(=O)O)n2)cc1` [Compound A, (E)-3-(6-(N-(2-dimethylaminoethyl)-4-methoxybenzylamino)-2-pyridyl)acrylicacid], in series [2], the Kb was 251 nM and the “antihistamine activity (in words)” value is recorded as “particularly active”. In the same order, the values of `COc1ccc(CN(CCN(C)C)c2ccc(C(=O)O)cn2)cc1` [Compound B, 6-(N-(2-dimethylaminoethyl)-4-methoxybenzylamino) nicotinic acid] are 1260 nM and “particularly active”.

Turning to `COc1ccc(CN(CCN(C)C)c2ccccn2)cc1` [Pyrilamine, N,N-dimethyl-N'-(4-methoxyphenylmethyl)-N'-2-pyridyl-1,2-ethanediamine], the sedation and drowsiness result in series [3] is “produces sedation and drowsiness in varying degrees in most patients”. Besides, the anticholinergic activity entry in series [1] is “varying degrees of anticholinergic activity”.
